From US20250257041A1, “INDUCERS OF INTEGRATED STRESS RESPONSE TO TREAT CANCER” (The Board of Regents of The University of Texas System, priority 2022, published 2025) come the findings set out here.

This assay concerns HCT116 WT. The assay can be described thus: Proliferation of HCT116 colorectal cell line, Cell TiterGlo. The format is cell-based, human. As to conditions: 10-point dose response in triplicate, multiple values = separate independent experiments; for IC50: Homo sapiens, HCT-116, wild type HCT116, read-out: HCT116 IC50 (uM) HCT116 WT; for HCT116 IC50 (uM) HCT116 WT: wild type HCT116. As to the method: Briefly, compounds were tested for their effect on proliferation of HCT116 colorectal cell lines using Cell TiterGlo (Promega). Each compound was tested in a 10-point dose response experiment in triplicate. Multiple values in the column titled HCT116 WT reflect separate independent experiments. The three columns titled “HCT116 WT (repeat)”, “HCT116-CGN2KO” and “HCT116 WT+ISRIB” provide data for selected compounds that were tested simultaneously under three conditions. The HCT116 WT column lists IC50 against the wild type HCT116 colorectal cancer cell line. The HCT116-CGN2KO lists IC50 data for cells in which one component of the integrated stress response, GCN2, has been knocked out using CRISPR technology.

By IC50 is commonly meant the concentration that gives 50% inhibition.

Each structure is given as a SMILES string.

On to `C#Cc1cccc(C(=O)Nc2cc(-c3ccc(NC(=O)c4cccc(C5(C(F)(F)F)N=N5)c4)cc3)nn2C)c1` [SW393243, 3-Ethynyl-N-(1-methyl-3-(4-(3-(3-(trifluoromethyl)-3H-diazirin-3-yl)benzamido)phenyl)-1H-pyrazol-5-yl)benzamide], for which the IC50 came to 17 µM.
`Cn1nc(-c2ccc(NC(=O)c3ccccc3Cl)cc2)cc1NC(=O)c1ccccc1F` [SW393244, 2-chloro-N-(4-(5-(2-fluorobenzamido)-1-methyl-1H-pyrazol-3-yl)phenyl)benzamide]: the IC50 is approximately 0.01 µM.
Still for that read-out and setting: with `Cn1nc(-c2ccc(NC(=O)c3ccccc3-c3ccccc3)cc2)cc1NC(=O)c1ccccc1` [SW393270, N-(4-(5-benzamido-1-methyl-1H-pyrazol-3-yl)phenyl)-[1,1′-biphenyl]-2-carboxamide] the figure was 0.13 µM; with `COc1cc(-c2cc(NC(=O)c3ccccc3)n(C)n2)ccc1NC(=O)c1ccccc1Cl` [SW393279, N-(4-(5-benzamido-1-methyl-1H-pyrazol-3-yl)-2-methoxyphenyl)-2-chlorobenzamide], more than 10 µM.
Still for that read-out and setting: with `C#CCOCc1ccccc1C(=O)Nc1ccc(-c2cc(NC(=O)c3cccc(N=[N+]=[N-])c3)n(C)n2)cc1` [SW393280, N-(4-(5-(3-azidobenzamido)-1-methyl-1H-pyrazol-3-yl)phenyl)-2-((prop-2-yn-1-yloxy)methyl)benzamide] the figure was 0.12 µM; with `Cn1nc(-c2ccc(C(=O)Nc3ccccc3Cl)cc2)cc1NC(=O)c1ccccc1` [SW393293, 4-(5-benzamido-1-methyl-1H-pyrazol-3-yl)-N-(2-chlorophenyl)benzamide], 0.19 µM; with `Cn1nc(-c2ccc(NC(=O)c3ccccc3Cl)cc2Cl)cc1NC(=O)c1ccccc1` [SW393294, N-(4-(5-benzamido-1-methyl-1H-pyrazol-3-yl)-3-chlorophenyl)-2-chlorobenzamide], 0.28 µM.
Still for that read-out and setting: in the case of `O=C(Nc1nc(-c2ccc(NC(=O)c3ccccc3Cl)cc2)cs1)c1ccccc1` [SW393296, N-(4-(2-Benzamidothiazol-4-yl)phenyl)-2-chlorobenzamide] it was 1.9 µM.
Turning to `Cn1nc(-c2ccc(NC(=O)c3ccccc3CN3CCOCC3)cc2)cc1NC(=O)c1ccccc1` [SW393298, N-(4-(5-Benzamido-1-methyl-1H-pyrazol-3-yl)phenyl)-2-(morpholinomethyl)benzamide], the IC50 was 0.15 µM.
As to `Cn1nc(-c2ccc(NC(=O)c3ccccc3COCc3cn(CCOCCNC(=S)Nc4ccc(-c5c6ccc(=O)cc-6oc6cc(O)ccc56)c(C(=O)O)c4)nn3)cc2)cc1NC(=O)c1ccccc1` [SW393345, 5-(3-(2-(2-(4-(((2-((4-(5-benzamido-1-methyl-1H-pyrazol-3-yl)phenyl)carbamoyl)benzyl)oxy)methyl)-1H-1,2,3-triazol-1-yl)ethoxy)ethyl)thioureido)-2-(6-hydroxy-3-oxo-3H-xanthen-9-yl)benzoic acid], the IC50 came out at 11.4 µM.
Take `Cn1nc(-c2ccc(NC(=O)C3CCCCC3)cc2)cc1NC(=O)c1ccccc1` [SW394442, N-(3-(4-(Cyclohexanecarboxamido)phenyl)-1-methyl-1H-pyrazol-5-yl)benzamide]: the IC50 was found to be 0.024 µM.
With `Cn1nc(-c2ccc(NC(=O)c3cccnc3Cl)cc2)cc1NC(=O)c1ccccc1` [SW394443, N-(4-(5-Benzamido-1-methyl-1H-pyrazol-3-yl)phenyl)-2-chloronicotinamide], the half-inhibitory concentration (IC50) came to 0.02 µM.
Consider `Cn1nc(C2CCC(NC(=O)c3ccccc3Cl)CC2)cc1NC(=O)c1ccccc1` (stereo not drawn) [SW394444, N-(4-(5-benzamido-1-methyl-1H-pyrazol-3-yl)cyclohexyl)-2-chlorobenzamide], for which the half-maximal inhibitory concentration (IC50) was more than 50 µM.
On to `Cn1nc(-c2ccc(NC(=O)c3ccncc3Cl)cc2)cc1NC(=O)c1ccccc1` [SW394446, N-(4-(5-Benzamido-1-methyl-1H-pyrazol-3-yl)phenyl)-3-chloroisonicotinamide], for which the IC50 turned out to be 0.05 µM.
With `Cn1nc(-c2ccc(NC(=O)c3ncccc3Cl)cc2)cc1NC(=O)c1ccccc1` [SW394447, N-(4-(5-Benzamido-1-methyl-1H-pyrazol-3-yl)phenyl)-3-chloropicolinamide], the concentration for half-maximal inhibition (IC50) came out at 0.58 µM.
Take `O=C(Nc1cccc(-c2ccc(NC(=O)c3ccccc3Cl)cc2)c1)c1ccccc1` [SW394484, N-(3′-benzamido-[1,1′-biphenyl]-4-yl)-2-chlorobenzamide]: the concentration for half-maximal inhibition (IC50) is 3.94 µM.
As for `Cn1nc(-c2ccc(NC(=O)c3ccccc3-c3cncnc3)cc2)cc1NC(=O)c1ccccc1` [SW394485, N-(4-(5-Benzamido-1-methyl-1H-pyrazol-3-yl)phenyl)-2-(pyrimidin-5-yl)benzamide], the half-inhibitory concentration (IC50) was 0.107 µM.
Take `Cn1nc(-c2ccc(NC(=O)c3ccccc3-c3cccnc3)cc2)cc1NC(=O)c1ccccc1` [SW394486, N-(4-(5-Benzamido-1-methyl-1H-pyrazol-3-yl)phenyl)-2-(pyridin-3-yl)benzamide]: the IC50 is 0.025 µM.
Still for that read-out and setting: with `C#Cc1cccc(C(=O)Nc2cc(-c3ccc(NC(=O)c4cccnc4Cl)cc3)nn2C)c1` [SW394487, 2-Chloro-N-(4-(5-(3-ethynylbenzamido)-1-methyl-1H-pyrazol-3-yl)phenyl)nicotinamide] the figure was 0.023 µM; with `Cn1nc(-c2ccc(NC(=O)C3CCCC3)cc2)cc1NC(=O)c1ccccc1` [SW394488, N-(3-(4-(Cyclopentanecarboxamido)phenyl)-1-methyl-1H-pyrazol-5-yl)benzamide], 0.32 µM; with `Cn1nc(-c2ccc(NC(=O)C3CCN(C(=O)OC(C)(C)C)CC3)cc2)cc1NC(=O)c1ccccc1` [SW394490, tert-butyl4-((4-(5-benzamido-1-methyl-1H-pyrazol-3-yl)phenyl)carbamoyl)piperidine-1-carboxylate], 3.84 µM.
With `Cn1nc(-c2ccc(NC(=O)C3CCC3)cc2)cc1NC(=O)c1ccccc1` [SW394491, N-(3-(4-(Cyclobutanecarboxamido)phenyl)-1-methyl-1H-pyrazol-5-yl)benzamide], the concentration for half-maximal inhibition (IC50) is 12 µM.
`Cn1nc(-c2ccc(NC(=O)C3CCCCCC3)cc2)cc1NC(=O)c1ccccc1` [SW394515, N-(4-(5-Benzamido-1-methyl-1H-pyrazol-3-yl)phenyl)cycloheptanecarboxamide]: the IC50 was determined as 0.044 µM.
In the case of `Cn1nc(-c2ccc(NC(=O)C3CCOCC3)cc2)cc1NC(=O)c1ccccc1` [SW394517, N-(4-(5-Benzamido-1-methyl-1H-pyrazol-3-yl)phenyl)tetrahydro-2H-pyran-4-carboxamide], the concentration for half-maximal inhibition (IC50) worked out at 0.32 µM.
Consider `Cc1ncccc1C(=O)Nc1ccc(-c2cc(NC(=O)c3ccccc3)n(C)n2)cc1` [SW394518, N-(4-(5-Benzamido-1-methyl-1H-pyrazol-3-yl)phenyl)-2-methylnicotinamide], for which the IC50 came to 0.016 µM.
In the case of `Cc1ccncc1C(=O)Nc1ccc(-c2cc(NC(=O)c3ccccc3)n(C)n2)cc1` [SW394519, N-(4-(5-Benzamido-1-methyl-1H-pyrazol-3-yl)phenyl)-4-methylnicotinamide], the half-inhibitory concentration (IC50) was found to be 0.25 µM.
In the case of `Cn1nc(-c2ccc(NC(=O)c3ccccc3COCCNC(=O)OC(C)(C)C)cc2)cc1NC(=O)c1ccccc1` [SW394532, tert-butyl (2-((2-((4-(5-benzamido-1-methyl-1H-pyrazol-3-yl)phenyl)carbamoyl)benzyl)oxy)ethyl)carbamate], the IC50 was 0.121 µM.
As to `O=C(Nc1cccc(-c2ccc(NC(=O)c3ccccc3Cl)cc2)n1)c1ccccc1` [SW394535, N-(4-(6-benzamidopyridin-2-yl)phenyl)-2-chlorobenzamide], the “HCT116 IC50 (uM) HCT116 WT” value is “inactive”.
Consider `Cn1nc(-c2ccc(NC(=O)c3ccccc3C#CCNC(=O)OC(C)(C)C)cc2)cc1NC(=O)c1ccccc1` [SW394544, tert-butyl(3-(2-((4-(5-benzamido-1-methyl-1H-pyrazol-3-yl)phenyl)carbamoyl)phenyl)prop-2-yn-1-yl)carbamate], for which the IC50 was determined as 1.2 µM.
Still for that read-out and setting: with `Cn1nc(-c2ccc(NC(=O)c3ccccc3Cl)cc2)cc1NC(=O)C1CCCCC1` [SW394546, 2-Chloro-N-(4-(5-(Cyclohexanecarboxamido)-1-methyl-1H-pyrazol-3-yl)phenyl)benzamide] the figure was 0.033 µM.
On to `Cn1nc(-c2ccc(NC(=O)c3ccccc3Cl)cc2)cc1NC(=O)C1CCOCC1` [SW394547, N-(3-(4-(2-Chlorobenzamido)phenyl)-1-methyl-1H-pyrazol-5-yl)tetrahydro-2H-pyran-4-car-boxamide], for which the IC50 stood at 0.05 µM.
Consider `Cn1nc(-c2ccc(NC(=O)c3ccccc3-c3ccc([N+](=O)[O-])cc3)cc2)cc1NC(=O)c1ccccc1` [SW394548, N-(4-(5-Benzamido-1-methyl-1H-pyrazol-3-yl)phenyl)-4′-nitro-[1,1′-biphenyl]-2-carboxam-ide], for which the IC50 was 1.13 µM.
Consider `C#Cc1cccc(C(=O)Nc2cc(-c3ccc(NC(=O)c4ccccc4-c4ccc(N=[N+]=[N-])cc4)cc3)nn2C)c1` [SW394549, 4′-Azido-N-(4-(5-(3-ethynylbenzamido)-1-methyl-1H-pyrazol-3-yl)phe-nyl)[1,1′-biphenyl]-2-carboxamide], for which the IC50 was found to be 4.1 µM.
Consider `O=C(Nc1ccc(-c2cc(NC(=O)c3ccccc3)on2)cc1)c1ccccc1` [SW394572, N-(4-(5-benzamidoisoxazol-3-yl)phenyl)benzamide], for which the 50% inhibitory concentration (IC50) came to 5.8 µM.
For the compound `O=C(Nc1ccc(-c2nnc(NC(=O)c3ccccc3Cl)o2)cc1)c1ccccc1Cl` [SW394597, 2-chloro-N-(4-(5-(2-chlorobenzamido)-1,3,4-oxadiazol-2-yl)phenyl)benzamide], the “HCT116 IC50 (uM) HCT116 WT” value was “inactive”.
`Cc1ncncc1C(=O)Nc1ccc(-c2cc(NC(=O)c3ccccc3)n(C)n2)cc1` [SW394598, N-(4-(5-Benzamido-1-methyl-1H-pyrazol-3-yl)phenyl)-4-methylpyrimidine-5-carboxamide]: the IC50 came out at 0.55 µM.
